Numbered stars: 1 amine (or outer) side, 2 acyl side, 3 side chain; on linkers, the order of the positions; unused ones are H or OH. Bridge positions count the residues as written; N and C are the ends. Side chains are listed from the residue outwards. Peptide text beside a SMILES is read from it. * marks the point of attachment. C20 diacid = O=C(O)CCCCCCCCCCCCCCCCCCC(=O)*; γGlu = O=C(O)[C@H](CCC(=O)[*:2])N[*:1]
Tests used:
[1] = ASSAY (III) ThT fibrillation assay for physical stability; type: physicochemical
How it was run: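 Formulations with 1 μM ThT, pH adjusted as required, incubated at 37 °C with 960 rpm orbital shaking; fluorescence (ex 444/em 485 nm) read every 20 min. Fibrillation reported as mean ThT fluorescence ± SD of 4–8 replicates at time points; polypeptide concentration measured by reverse-phase HPLC before and after, post-centrifugation.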

[2] = biological target: T1, rat amylin receptor (rat calcitonin receptor + rat RAMP 3) (Rattus norvegicus, UniProt P32214+Q9JJ73); experiment: ASSAY (VI) binding to the rat amylin receptor; settings: for IC50: binding to rat amylin receptor, read-out: rAmylin-R bind IC50
T1 construct: expressed in transfected cells; host or cells: BHK tk'ts 13 (transient, FuGENE 6), membranes
T1 sequence (P32214 25-479 isoform P32214-2 limits assumed): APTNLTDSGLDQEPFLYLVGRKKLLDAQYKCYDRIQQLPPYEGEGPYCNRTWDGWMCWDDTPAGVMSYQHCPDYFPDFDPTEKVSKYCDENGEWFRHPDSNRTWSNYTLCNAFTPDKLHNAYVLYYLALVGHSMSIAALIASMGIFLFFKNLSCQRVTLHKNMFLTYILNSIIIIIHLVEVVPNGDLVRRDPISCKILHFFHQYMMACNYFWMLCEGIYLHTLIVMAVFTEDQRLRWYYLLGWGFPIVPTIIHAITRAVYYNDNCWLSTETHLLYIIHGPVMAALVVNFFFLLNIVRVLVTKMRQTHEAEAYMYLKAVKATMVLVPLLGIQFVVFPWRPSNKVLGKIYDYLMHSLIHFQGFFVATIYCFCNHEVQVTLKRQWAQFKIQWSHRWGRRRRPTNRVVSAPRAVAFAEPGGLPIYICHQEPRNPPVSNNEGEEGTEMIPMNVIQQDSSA
T1 sequence (Q9JJ73 23-147 partner): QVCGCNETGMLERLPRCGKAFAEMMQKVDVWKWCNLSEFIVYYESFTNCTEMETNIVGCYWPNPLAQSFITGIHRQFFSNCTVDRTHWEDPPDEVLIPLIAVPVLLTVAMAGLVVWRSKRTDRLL
How it was run: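 This assay measured binding to the rat amylin receptor. BHK tk′ts 13 cells were transiently transfected with the rat calcitonin receptor using FuGENE® 6 (Roche), following the manufacturer's recommendations. About 48 hours after transfection, the cells were harvested and membranes were prepared from them for the binding determination.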

rat calcitonin receptor = biological target: T2, rat calcitonin receptor (Rattus norvegicus, UniProt P32214); experiment: ASSAY (VIII) binding to the rat calcitonin receptor; settings: Table 7, read-out: rCTR bind IC50
T2 construct: expressed in transfected cells; host or cells: BHK tk'ts 13 (transient, FuGENE 6), membranes
T2 sequence (P32214 25-479 isoform P32214-2 limits assumed): T1 sequence (P32214 25-479 isoform P32214-2 limits assumed)
How it was run: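 Membranes were prepared from BHK tk′ts 13 cells transiently transfected with rat calcitonin receptor. Cells were grown in DMEM with 10% FBS and harvested approximately 48 hours after transfection.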

[3] = Table 7, rat binding selectivity, rCTR IC50 / rAmylin-R IC50
[4] = Table 7a (preferred compounds), rat binding selectivity, rCTR IC50 / rAmylin-R IC50
[5] = ratio of rCTR bind IC50 to rAmylin-R bind IC50

Row | Compound | ThT pH 4.0 lag time (h) [1] [h] | IC50 ([2]; Table 7) [µM] | Ratio rCT/rAmylin binding [2, 3] | Ratio rCT/rAmylin binding [2, 4] | Ratio rCT/rAmylin binding [2, 5] | IC50 (rat calcitonin receptor) [µM]
1 | CC(C)C[C@H](NC(=O)[C@H](CCCNC(=N)N)NC(=O)[C@H](CCC(N)=O)NC(=O)[C@@H](NC(=O)[C@H](C)NC(=O)[C@@H]1CSSC[C@H](NC(=O)[C@@H](N)CCCCNC(=O)CC[C@H](NC(=O)CC[C@H](NC(=O)CCCCCCCCCCCCCCCCCCC(=O)O)C(=O)O)C(=O)O)C(=O)N[C@@H](CC(N)=O)C(=O)N[C@@H]([C@@H](C)O)C(=O)N[C@@H](C)C(=O)N[C@@H]([C@@H](C)O)C(=O)N1)[C@@H](C)O)C(=O)N[C@@H](C)C(=O)N[C@@H](CC(=O)O)C(=O)N[C@@H](Cc1ccccc1)C(=O)N[C@@H](CC(C)C)C(=O)N[C@@H](CCCNC(=N)N)C(=O)N[C@@H](Cc1c[nH]cn1)C(=O)N[C@@H](CO)C(=O)N[C@@H](CO)C(=O)N1CCC[C@H]1C(=O)N[C@@H](CC(N)=O)C(=O)N[C@@H](Cc1ccccc1)C(=O)NCC(=O)N[C@@H](C)C(=O)N1CCC[C@H]1C(=O)N[C@@H](CC(C)C)C(=O)N[C@@H](CO)C(=O)N[C@@H](CO)C(=O)N[C@H](C(=O)N[C@@H](CC(N)=O)C(=O)N[C@H](C(=O)NCC(=O)N[C@@H](CO)C(=O)N[C@@H](CC(=O)O)C(=O)N[C@H](C(=O)N[C@@H](Cc1ccc(O)cc1)C(N)=O)[C@@H](C)O)C(C)C)[C@@H](C)O [Example 1] (H-K([γGlu-γGlu-C20 diacid])CNTATCATQRLADFLRHSSPNFGAPLSSTNVGSDTY-NH2; disulfide 2-7) | 0 | 0.0013 | 103.9 | 103.9 | 103.9 | 0.135
2 | CC[C@H](C)[C@H](NC(=O)[C@H](C)NC(=O)CNC(=O)[C@H](Cc1ccccc1)NC(=O)[C@H](CC(N)=O)NC(=O)[C@@H]1CCCN1C(=O)[C@H](CO)NC(=O)[C@H](CO)NC(=O)[C@H](Cc1c[nH]cn1)NC(=O)[C@H](CCCNC(=N)N)NC(=O)[C@H](CC(C)C)NC(=O)[C@H](Cc1ccccc1)NC(=O)[C@H](CC(N)=O)NC(=O)[C@H](C)NC(=O)[C@H](CC(C)C)NC(=O)[C@H](CCCNC(=N)N)NC(=O)[C@H](CCC(N)=O)NC(=O)[C@@H](NC(=O)[C@H](C)NC(=O)[C@@H]1CSSC[C@H](NC(=O)[C@H](CCCCN)NC(=O)CC[C@H](NC(=O)CCCCCCCCCCCCCCCCCCC(=O)O)C(=O)O)C(=O)N[C@@H](CC(N)=O)C(=O)N[C@@H]([C@@H](C)O)C(=O)N[C@@H](C)C(=O)N[C@@H]([C@@H](C)O)C(=O)N1)[C@@H](C)O)C(=O)N1CCC[C@H]1C(=O)N[C@@H](CO)C(=O)N[C@@H](CO)C(=O)N[C@H](C(=O)N[C@@H](CC(N)=O)C(=O)N[C@H](C(=O)NCC(=O)N1CCC[C@H]1C(=O)N[C@@H](CCC(=O)O)C(=O)N[C@H](C(=O)N[C@@H](Cc1ccc(O)cc1)C(N)=O)[C@@H](C)O)C(C)C)[C@@H](C)O [Example 29] ({C20 diacid-γGlu}-KCNTATCATQRLANFLRHSSPNFGAIPSSTNVGPETY-NH2; disulfide 2-7) | 16 | 0.000322 | 67.0 | 67.0 | 67.0 | 0.0216
3 | CC[C@H](C)[C@H](NC(=O)[C@H](C)NC(=O)CNC(=O)[C@H](Cc1ccccc1)NC(=O)[C@H](CC(N)=O)NC(=O)[C@@H]1CCCN1C(=O)[C@H](CO)NC(=O)[C@H](CO)NC(=O)[C@H](Cc1c[nH]cn1)NC(=O)[C@H](CCCNC(=N)N)NC(=O)[C@H](CC(C)C)NC(=O)[C@H](Cc1ccccc1)NC(=O)[C@H](CCC(=O)O)NC(=O)[C@H](C)NC(=O)[C@H](CC(C)C)NC(=O)[C@H](CCCNC(=N)N)NC(=O)[C@H](CCC(N)=O)NC(=O)[C@@H](NC(=O)[C@H](C)NC(=O)[C@@H]1CSSC[C@H](NC(=O)[C@H](CCCCN)NC(=O)CC[C@H](NC(=O)CCCCCCCCCCCCCCCCCCC(=O)O)C(=O)O)C(=O)N[C@@H](CC(N)=O)C(=O)N[C@@H]([C@@H](C)O)C(=O)N[C@@H](C)C(=O)N[C@@H]([C@@H](C)O)C(=O)N1)[C@@H](C)O)C(=O)N1CCC[C@H]1C(=O)N[C@@H](CO)C(=O)N[C@@H](CO)C(=O)N[C@H](C(=O)N1CCC[C@H]1C(=O)N[C@H](C(=O)NCC(=O)N[C@@H](CO)C(=O)N[C@@H](CC(N)=O)C(=O)N[C@H](C(=O)N[C@@H](Cc1ccc(O)cc1)C(N)=O)[C@@H](C)O)C(C)C)[C@@H](C)O [Example 31] ({C20 diacid-γGlu}-KCNTATCATQRLAEFLRHSSPNFGAIPSSTPVGSNTY-NH2; disulfide 2-7 (inferred)) | 45 | 0.000619 | 42.8 | 42.8 | 42.8 | 0.0265
4 | CC[C@H](C)[C@H](NC(=O)[C@H](C)NC(=O)CNC(=O)[C@H](Cc1ccccc1)NC(=O)[C@H](CC(N)=O)NC(=O)[C@@H]1CCCN1C(=O)[C@H](CO)NC(=O)[C@H](CO)NC(=O)[C@H](Cc1c[nH]cn1)NC(=O)[C@H](CCCNC(=N)N)NC(=O)[C@H](CC(C)C)NC(=O)[C@H](Cc1ccccc1)NC(=O)[C@H](CCC(=O)O)NC(=O)[C@H](C)NC(=O)[C@H](CC(C)C)NC(=O)[C@H](CCCNC(=N)N)NC(=O)[C@H](CCC(N)=O)NC(=O)[C@@H](NC(=O)[C@H](C)NC(=O)[C@@H]1CSSC[C@H](NC(=O)[C@H](CCCCN)NC(=O)CC[C@H](NC(=O)CCCCCCCCCCCCCCCCCCC(=O)O)C(=O)O)C(=O)N[C@@H](CC(N)=O)C(=O)N[C@@H]([C@@H](C)O)C(=O)N[C@@H](C)C(=O)N[C@@H]([C@@H](C)O)C(=O)N1)[C@@H](C)O)C(=O)N1CCC[C@H]1C(=O)N[C@@H](CO)C(=O)N[C@@H](CO)C(=O)N[C@H](C(=O)N[C@@H](CC(N)=O)C(=O)N[C@H](C(=O)NCC(=O)N[C@@H](CCCCN)C(=O)N[C@@H](CC(N)=O)C(=O)N[C@H](C(=O)N[C@@H](Cc1ccc(O)cc1)C(N)=O)[C@@H](C)O)C(C)C)[C@@H](C)O [Example 36] ({C20 diacid-γGlu}-KCNTATCATQRLAEFLRHSSPNFGAIPSSTNVGKNTY-NH2; disulfide 2-7 (inferred)) | 45 | 0.00186 | 32.4 | 32.4 | 32.4 | 0.0601
5 | CC[C@H](C)[C@H](NC(=O)[C@H](C)NC(=O)CNC(=O)[C@H](Cc1ccccc1)NC(=O)[C@H](CC(N)=O)NC(=O)[C@@H]1CCCN1C(=O)[C@H](CO)NC(=O)[C@H](CO)NC(=O)[C@H](Cc1c[nH]cn1)NC(=O)[C@H](CCCNC(=N)N)NC(=O)[C@H](CC(C)C)NC(=O)[C@H](Cc1ccccc1)NC(=O)[C@H](CC(N)=O)NC(=O)[C@H](C)NC(=O)[C@H](CC(C)C)NC(=O)[C@H](CCCNC(=N)N)NC(=O)[C@H](CCC(N)=O)NC(=O)[C@@H](NC(=O)[C@H](C)NC(=O)[C@@H]1CSSC[C@H](NC(=O)[C@@H](N)CCCCNC(=O)COCCOCCNC(=O)CC[C@H](NC(=O)CCCCCCCCCCCCCCCCCCC(=O)O)C(=O)O)C(=O)N[C@@H](CC(N)=O)C(=O)N[C@@H]([C@@H](C)O)C(=O)N[C@@H](C)C(=O)N[C@@H]([C@@H](C)O)C(=O)N1)[C@@H](C)O)C(=O)N1CCC[C@H]1C(=O)N[C@@H](CO)C(=O)N[C@@H](CO)C(=O)N[C@H](C(=O)N[C@@H](CC(N)=O)C(=O)N[C@H](C(=O)NCC(=O)N[C@@H](CO)C(=O)N[C@@H](CC(N)=O)C(=O)N[C@H](C(=O)N[C@@H](Cc1ccc(O)cc1)C(N)=O)[C@@H](C)O)C(C)C)[C@@H](C)O [Example 41] | 7 | 0.00137 | 54.0 | 54.0 | 54.0 | 0.0741
